One assay relates to HeLa galactose cells. Put plainly: Cell growth and proliferation assay of HeLa galactose cells (crystal violet). Format: cell-based. The conditions noted are these: 72 hours incubation, crystal violet staining, absorbance at 590 nm. The procedure, abridged:
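HeLa cells adapted stepwise over three weeks to glucose-free galactose medium plus 10 mM galactose, seeded at 2000 cells/well and treated 72 h with compounds (0.001% DMSO) at 37° C. Growth read by crystal violet staining, dye solubilized and absorbance at 590 nm; IC50 from concentration-response curves.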

The subject of assay [1] is Oxygen consumption (mitochondrial function). Put plainly: Oxygen consumption assay (MitoXpress probe). Type of assay: cell-based. To be noted: MitoXpress probe signal, kinetic analysis at 37° C. for 5 hours, compared to untreated cells. From the text:
Oxygen consumption is one of the most informative and direct measures of mitochondrial function and can be measured, for example, by using the MitoXpress® assay (Luxcel MX-2001, Luxcel Biosciences). The MitoXpress® probe is one of a family of phosphorescent oxygen sensitive probes. The assay exploits the ability of oxygen to quench the excited state of the MitoXpress® probe. As the test material respires (i.e. the cells), oxygen is depleted in the surrounding solution/environment, which increases the probe phosphorescence signal. Changes in oxygen consumption reflecting changes in mitochondrial activity are seen as changes in the MitoXpress® probe signal over time.
Cells were seeded in 96 well black plates with transparent bottoms (Greiner Bio-One cat. no. 655090) at a density of 50′000 cells/well in a final volume of 100 μL. After 24 hours the incubation media was removed and 150 μL of fresh media containing inhibitors at different concentrations was added to each well. Then, 10 μL of MitoXpress® and 150 μL mineral oil were added per well. Reading from the top of the plate, kinetic analysis was performed at 37° C. for 5 hours using a Synergy 4 plate reader (BioTek) and Time-resolved Fluoresence (TRF) wavelengths of 380/11 nm excitation and 650/20 nm emission or 665/40 emission (30 microsecond delay time, 100 microsecond integration time, gain or sensitivity settings set at either medium or high). IC50s were calculated as the concentration that inhibits 50% of the phosphorescent oxygen sensitive probe signal (MitoXpress®) as compared to untreated cells.

Our source for the IC50 values is US20190142810A1, “MITOCHONDRIAL INHIBITORS FOR THE TREATMENT OF PROLIFERATION DISORDERS” (Basilea Pharmaceutica International AG, priority 2016, published 2019).

The structures appear in SMILES notation.

Take `Cc1cc(NC(=O)N2CCC(Cc3c(F)cc(N(C)C)cc3F)CC2)sn1` [Example 151, 4-[[4-(dimethylamino)-2,6-difluoro-phenyl]methyl]-N-(3-methylisothiazol-5-yl)piperidine-1-carboxamide]: the IC50 in the assay with HeLa galactose cells (Homo sapiens, HeLa, 72 h) was found to be 20 nM; in assay [1] (5 h) it was 42 nM.

With `Cc1ccc(OC2CCN(C(=O)Nc3nc(C)ns3)CC2)cc1` [Example 18], the IC50 in the assay on HeLa galactose cells (Homo sapiens, HeLa, 72 h) was determined as 637 nM; in assay [1] (5 h) it was 515 nM.

With `CCc1nsc(NC(=O)N2CCC(=Cc3c(F)cc(N(C)C)cc3F)CC2)n1` [Example 149, 4-[[4-(dimethylamino)-2,6-difluoro-phenyl]methylene]-N-(3-ethyl-1,2,4-thiadiazol-5-yl)piperidine-1-carboxamide], the IC50 in the assay on HeLa galactose cells (Homo sapiens, HeLa, 72 h) turned out to be 11 nM; in assay [1] (5 h) it was 13 nM.

On to `Cc1nsc(NC(=O)N2CCC(Cc3ccc(Cl)cc3C)CC2)n1` [Example 14], for which the IC50 in the assay with HeLa galactose cells (Homo sapiens, HeLa, 72 h) is 146 nM; in assay [1] (5 h), 200 nM.

In the case of `Cc1nsc(NC(=O)N2CCC(Cc3ncc(Cl)cc3F)CC2)n1` [Example 62], the IC50 in the assay on HeLa galactose cells (Homo sapiens, HeLa, 72 h) was 57 nM; in assay [1] (5 h), 122 nM.

With `Cc1nsc(NC(=O)N2CCC(Cc3ccc(C(F)(F)F)cc3)CC2)n1` [Example 10], the IC50 came to 36 nM with HeLa galactose cells (Homo sapiens, HeLa, 72 h) and 200 nM in assay [1] (5 h).

Take `Cc1nsc(NC(=O)N2CCC(Cc3ccc(Cl)cc3)CC2)n1` [Example 2]: the IC50 in the assay with HeLa galactose cells (Homo sapiens, HeLa, 72 h) was 41 nM; in assay [1] (5 h), less than 100 nM.

For the molecule `Cc1cc(NC(=O)N2CCC(Cc3c(F)cc(N(C)C)cc3F)CC2)ccn1` [Example 153], the IC50 stood at 34 nM in the assay on HeLa galactose cells (Homo sapiens, HeLa, 72 h) and 119 nM in assay [1] (5 h).

Consider `Cc1nsc(NC(=O)N2CCC(=Cc3c(F)cc(Cl)cc3F)CC2)n1` [Example 26, 4-[(4-chloro-2,6-difluoro-phenyl)methylene]-N-(3-methyl-1,2,4-thiadiazol-5-yl)piperidine-1-carboxamide], for which the IC50 was 15 nM in the assay with HeLa galactose cells (Homo sapiens, HeLa, 72 h) and 23 nM in assay [1] (5 h).

In the case of `Cc1cc(NC(=O)N2CCC(C(=O)c3ccc(C(F)(F)F)cc3F)CC2)ccn1` [Example 143], the IC50 with HeLa galactose cells (Homo sapiens, HeLa, 72 h) came out at 43 nM; in assay [1] (5 h), 103 nM.

For the molecule `Cc1nsc(NC(=O)N2CCC(Cc3ccc(F)cc3F)CC2)n1` [Example 60, 4-[(2,4-difluorophenyl)methyl]-N-(3-methyl-1,2,4-thiadiazol-5-yl)piperidine-1-carboxamide], the IC50 came out at 53 nM in the assay with HeLa galactose cells (Homo sapiens, HeLa, 72 h) and 68 nM in assay [1] (5 h).

For the molecule `Cc1nsc(NC(=O)N2CCC(Oc3ccc(Cl)cc3)CC2)n1` [Example 19, 4-(4-chlorophenoxy)-N-(3-methyl-1,2,4-thiadiazol-5-yl)piperidine-1-carboxamide], the IC50 in the assay with HeLa galactose cells (Homo sapiens, HeLa, 72 h) was determined as 266 nM; in assay [1] (5 h), 488 nM.

Regarding `COc1cc(F)c(CC2CCN(C(=O)Nc3nc(C)ns3)CC2)cn1` [Example 68], the IC50 in the assay with HeLa galactose cells (Homo sapiens, HeLa, 72 h) was 100 nM; in assay [1] (5 h), 179 nM.

For `Cc1cc(NC(=O)N2CCC(=Cc3c(F)cc(Cl)cc3F)CC2)ccn1` [Example 137, 4-[(4-chloro-2,6-difluoro-phenyl)methylene]-N-(2-methyl-4-pyridyl)piperidine-1-carboxamide], the 50% inhibitory concentration (IC50) was found to be 17 nM in the assay on HeLa galactose cells (Homo sapiens, HeLa, 72 h) and 42 nM in assay [1] (5 h).

As for `Cc1ccc(CC2CCN(C(=O)Nc3nc(C)ns3)CC2)cc1` [Example 5], the IC50 in the assay with HeLa galactose cells (Homo sapiens, HeLa, 72 h) was 36 nM; in assay [1] (5 h), 100 nM.

For `Cc1nsc(NC(=O)N2CCC(=Cc3ccc(N(C)C)cc3F)CC2)n1` [Example 47, 4-[[4-(dimethylamino)-2-fluoro-phenyl]methylene]-N-(3-methyl-1,2,4-thiadiazol-5-yl)piperidine-1-carboxamide], the half-maximal inhibitory concentration (IC50) with HeLa galactose cells (Homo sapiens, HeLa, 72 h) stood at 25 nM; in assay [1] (5 h) it was 67 nM.

For the molecule `Cc1nsc(NC(=O)N2CCC(Cc3ccc(C(F)(F)F)cc3F)CC2)n1` [Example 33], the IC50 in the assay with HeLa galactose cells (Homo sapiens, HeLa, 72 h) turned out to be 70 nM; in assay [1] (5 h), 102 nM.

Regarding `COC1CN(Cc2ccc(Cl)cc2F)CCN(C(=O)Nc2nc(C)ns2)C1` (stereo not shown) [Example 160, 4-[(4-chloro-2-fluoro-phenyl)methyl]-6-methoxy-N-(3-methyl-1,2,4-thiadiazol-5-yl)-1,4-diazepane-1-carboxamide], the IC50 was found to be 21 nM with HeLa galactose cells (Homo sapiens, HeLa, 72 h) and 65 nM in assay [1] (5 h).

For `Cc1nsc(NC(=O)N2CCCC(Cc3c(F)cc(N(C)C)cc3F)CC2)n1` (stereo not shown) [Example 121, 4-[[4-(dimethylamino)-2,6-difluoro-phenyl]methyl]-N-(3-methyl-1,2,4-thiadiazol-5-yl)azepane-1-carboxamide], the IC50 with HeLa galactose cells (Homo sapiens, HeLa, 72 h) came out at 20 nM; in assay [1] (5 h), 54 nM.

`Cc1nsc(NC(=O)N2CC/C(=C\c3ccc(Cl)cc3F)C(C)(C)C2)n1` [Example 85, (4E)-4-[(4-chloro-2-fluoro-phenyl)methylene]-3,3-dimethyl-N-(3-methyl-1,2,4-thiadiazol-5-yl)piperidine-1-carboxamide]: the IC50 in the assay on HeLa galactose cells (Homo sapiens, HeLa, 72 h) stood at 38 nM; in assay [1] (5 h) it was 83 nM.

For the molecule `CCc1ccc(CC2CCN(C(=O)Nc3nc(C)ns3)CC2)cc1` [Example 17], the IC50 in the assay with HeLa galactose cells (Homo sapiens, HeLa, 72 h) is 162 nM; in assay [1] (5 h), 243 nM.

In the case of `Cc1nsc(NC(=O)N2CCC(Cc3ccc(C)c(C)c3)CC2)n1` [Example 28, 4-[(3,4-dimethylphenyl)methyl]-N-(3-methyl-1,2,4-thiadiazol-5-yl)piperidine-1-carboxamide], the 50% inhibitory concentration (IC50) in the assay with HeLa galactose cells (Homo sapiens, HeLa, 72 h) was 249 nM; in assay [1] (5 h), 334 nM.

Consider `COc1ccc(CC2CCN(C(=O)Nc3nc(C)ns3)CC2)cc1` [Example 3], for which the half-inhibitory concentration (IC50) is 80 nM with HeLa galactose cells (Homo sapiens, HeLa, 72 h) and less than 100 nM in assay [1] (5 h).

For `Cc1nsc(NC(=O)N2CCC(=Cc3ccc(Cl)cc3F)CC2)n1` [Example 39, 4-[(4-chloro-2-fluoro-phenyl)methylene]-N-(3-methyl-1,2,4-thiadiazol-5-yl)piperidine-1-carboxamide], the IC50 in the assay on HeLa galactose cells (Homo sapiens, HeLa, 72 h) is 38 nM; in assay [1] (5 h), 69 nM.

Take `COc1ccc(CC2CCN(C(=O)Nc3nc(C)ns3)CC2)c(C)c1` [Example 13, 4-[(4-methoxy-2-methyl-phenyl)methyl]-N-(3-methyl-1,2,4-thiadiazol-5-yl)piperidine-1-carboxamide]: the IC50 with HeLa galactose cells (Homo sapiens, HeLa, 72 h) was 307 nM; in assay [1] (5 h), 345 nM.

For the molecule `Cc1nsc(NC(=O)N2CCC(Cc3c(F)cc(C(F)(F)F)cc3F)CC2)n1` [Example 40, 4-[[2,6-difluoro-4-(trifluoromethyl)phenyl]methyl]-N-(3-methyl-1,2,4-thiadiazol-5-yl)piperidine-1-carboxamide], the IC50 in the assay on HeLa galactose cells (Homo sapiens, HeLa, 72 h) turned out to be 32 nM; in assay [1] (5 h), 48 nM.

On to `Cc1ccc(CC2CCN(C(=O)Nc3nc(C)ns3)CC2)nc1` [Example 15], for which the half-inhibitory concentration (IC50) was found to be 267 nM in the assay on HeLa galactose cells (Homo sapiens, HeLa, 72 h) and 412 nM in assay [1] (5 h).

Regarding `Cc1nsc(NC(=O)N2CCC(Cc3ccc(Cl)cc3F)CC2)n1` [Example 9], the IC50 with HeLa galactose cells (Homo sapiens, HeLa, 72 h) was 36 nM; in assay [1] (5 h), less than 100 nM.

On to `COc1cc(F)c(C=C2CCN(C(=O)Nc3nc(C)ns3)CC2)c(F)c1` [Example 97, 4-[(2,6-difluoro-4-methoxy-phenyl)methylene]-N-(3-methyl-1,2,4-thiadiazol-5-yl)piperidine-1-carboxamide], for which the concentration for half-maximal inhibition (IC50) in the assay with HeLa galactose cells (Homo sapiens, HeLa, 72 h) amounted to 28 nM; in assay [1] (5 h), 30 nM.

As for `Cc1nsc(NC(=O)N2CCC(Cc3ccc(Cl)cc3F)C(C)C2)n1` (single isomer, unassigned) [Example 84b, 4-[(4-chloro-2-fluoro-phenyl)methyl]-3-methyl-N-(3-methyl-1,2,4-thiadiazol-5-yl)piperidine-1-carboxamide], the IC50 was found to be 75 nM with HeLa galactose cells and 121 nM in assay [1].

On to `CCc1cc(NC(=O)N2CCC(=Cc3ccc(Cl)cc3F)CC2)ccn1` [Example 144, 4-[(4-chloro-2-fluoro-phenyl)methylene]-N-(2-ethyl-4-pyridyl)piperidine-1-carboxamide], for which the IC50 in the assay on HeLa galactose cells (Homo sapiens, HeLa, 72 h) turned out to be 8 nM; in assay [1] (5 h) it was 53 nM.

`CCc1nsc(NC(=O)N2CCC(Cc3c(F)cc(N(C)C)cc3F)CC2)n1` [Example 152, 4-[[4-(dimethylamino)-2,6-difluoro-phenyl]methyl]-N-(3-ethyl-1,2,4-thiadiazol-5-yl)piperidine-1-carboxamide]: the IC50 with HeLa galactose cells (Homo sapiens, HeLa, 72 h) was determined as 19 nM; in assay [1] (5 h), 39 nM.

For `COCCN(C)c1cc(F)c(C=C2CCN(C(=O)Nc3nc(C)ns3)CC2)c(F)c1` [Example 146, 4-[[2,6-difluoro-4-[2-methoxyethyl(methyl)amino]phenyl]methylene]-N-(3-methyl-1,2,4-thiadiazol-5-yl)piperidine-1-carboxamide], the IC50 in the assay with HeLa galactose cells (Homo sapiens, HeLa, 72 h) turned out to be 13 nM; in assay [1] (5 h), 20 nM.

`Cc1nsc(NC(=O)N2CCC(Oc3ccc(Cl)cc3Cl)CC2)n1` [Example 20]: the 50% inhibitory concentration (IC50) with HeLa galactose cells (Homo sapiens, HeLa, 72 h) came out at 122 nM; in assay [1] (5 h) it was 369 nM.

On to `Cc1nsc(NC(=O)N2CCC(=Cc3ncc(Cl)cc3F)CC2)n1` [Example 67], for which the IC50 in the assay with HeLa galactose cells (Homo sapiens, HeLa, 72 h) was determined as 125 nM; in assay [1] (5 h), 233 nM.
